{"source": "paper PMC11768629", "about": "“Potential Interaction of Pinocembrin with Drug Transporters and Hepatic Drug-Metabolizing Enzymes” (Pharmaceuticals, 2025)", "key": {"hOAT1 [1]": {"target": "T1, hOAT1 (Homo sapiens, UniProt Q4U2R8)", "T1 construct": "host or cells: MDCK", "T1 sequence (Q4U2R8 1-563)": "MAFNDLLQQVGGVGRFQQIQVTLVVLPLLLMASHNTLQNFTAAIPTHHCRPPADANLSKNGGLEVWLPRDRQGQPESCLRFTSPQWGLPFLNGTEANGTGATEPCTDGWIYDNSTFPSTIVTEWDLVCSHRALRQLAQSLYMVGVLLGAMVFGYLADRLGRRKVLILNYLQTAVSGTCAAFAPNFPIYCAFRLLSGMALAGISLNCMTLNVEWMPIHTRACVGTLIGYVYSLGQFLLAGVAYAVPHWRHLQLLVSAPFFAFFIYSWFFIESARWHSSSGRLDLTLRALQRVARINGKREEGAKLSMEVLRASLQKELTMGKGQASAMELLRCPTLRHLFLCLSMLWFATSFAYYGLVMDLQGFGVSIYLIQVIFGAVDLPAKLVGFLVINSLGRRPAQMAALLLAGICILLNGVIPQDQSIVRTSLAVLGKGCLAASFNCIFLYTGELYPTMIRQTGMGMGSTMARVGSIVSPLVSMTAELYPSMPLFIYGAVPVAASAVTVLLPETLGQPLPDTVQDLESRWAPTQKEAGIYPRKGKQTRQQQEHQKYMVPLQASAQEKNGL", "experiment": "Cis-inhibition assay, 3H-PAH uptake in hOAT1-MDCK cells", "format": "cell-based", "settings": "10 µM pinocembrin, compared with vehicle control", "protocol": "(§1) Next, the effects of pinocembrin on the transport function of renal drug transporters, including hOAT1, hOAT3, hOCT1, hOCT2, hMATE1, and hMATE2, were determined.\n(§2) A cell monolayer comprising hOAT1-MDCK, hOAT3-MDCK, hOCT1-CHO-K1, hOCT2-CHO-K1, hMATE1-CHO-K1, hMATE2-CHO-K1, and mock cells were utilized for the uptake experiments. The cells were washed three times with a buffer containing (in mM) 140 NaCl, 5 KCl, 0.4 MgSO4, 0.5 MgCl2, 1 CaCl2, 0.3 Na2HPO4, 0.4 KH2PO4, 6 D-glucose, and 4 NaHCO3 at pH 7.4 and incubated at 37 °C for 15 min. After incubation, the hOAT1-MDCK and hOAT3-MDCK cells were incubated for 10 min with ^3H-PAH and ^3H-estrone sulfate, a substrate of hOAT1 and hOAT3, respectively. The hOCT1-CHO-K1 and hOCT2-CHO-K1 cells were incubated with ^3H-MPP^+, a substrate of OCT1 and OCT2, for five minutes. The functions of MATE1 and MATE2 were determined by incubating the hMATE1-CHO-K1 and hMATE2-CHO-K1 cells with a buffer containing ^3H-MPP^+, a substrate of MATE1 and MATE2, at pH 8.5 for five minutes. The cells were washed three times with an ice-cold buffer to stop the transport function. The cells were lyzed with 0.4 N NaOH for at least four hours. The samples were collected and transferred to vials containing a liquid scintillation cocktail to measure radioactivity by a β-counter (Packard BioScience, Wellesley, MA, USA). […]"}, "hMATE2": {"target": "T2, hMATE2 (Homo sapiens, UniProt Q86VL8)", "T2 construct": "host or cells: CHO-K1", "T2 sequence (Q86VL8 whole entry)": "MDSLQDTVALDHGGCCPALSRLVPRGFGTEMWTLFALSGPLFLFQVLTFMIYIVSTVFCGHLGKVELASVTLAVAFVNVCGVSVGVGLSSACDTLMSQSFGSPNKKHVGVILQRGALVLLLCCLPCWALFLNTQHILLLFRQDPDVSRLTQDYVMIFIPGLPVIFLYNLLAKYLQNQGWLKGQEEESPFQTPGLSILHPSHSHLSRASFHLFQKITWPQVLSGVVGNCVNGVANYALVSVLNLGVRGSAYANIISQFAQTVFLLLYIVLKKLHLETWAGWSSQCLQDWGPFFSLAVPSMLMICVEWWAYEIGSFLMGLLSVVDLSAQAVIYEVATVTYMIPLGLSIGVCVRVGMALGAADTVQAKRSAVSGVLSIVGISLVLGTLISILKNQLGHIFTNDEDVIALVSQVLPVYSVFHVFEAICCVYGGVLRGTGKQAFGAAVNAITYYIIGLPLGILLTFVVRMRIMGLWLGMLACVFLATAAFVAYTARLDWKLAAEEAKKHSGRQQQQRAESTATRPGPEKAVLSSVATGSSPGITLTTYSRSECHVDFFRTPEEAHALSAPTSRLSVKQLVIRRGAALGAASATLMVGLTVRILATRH", "experiment": "Cis-inhibition assay, 3H-MPP+ uptake in hMATE2-CHO-K1 cells", "format": "cell-based", "settings": "pinocembrin, pH 8.5", "protocol": "as §1, §2"}, "hOAT1 [2]": {"target": "T1, hOAT1", "experiment": "Pinocembrin treatment followed by 3H-PAH accumulation in hOAT1-MDCK cells", "format": "cell-based", "settings": "1, 10 and 50 μM for 24 h, concentration-dependent, compared with vehicle", "protocol": "The hOAT1-MDCK cells and hOAT3-MDCK cells were treated with 1, 10, and 50 μM pinocembrin for 24 h, followed by a measurement of ^3H-PAH and ^3H-estrone sulfate cellular accumulation. […] The inhibitory effect of pinocembrin occurred in a concentration-dependent manner.\nas §2, with “The cells were lyzed with 0.4 N NaOH for at least four hours.” left out"}, "[3]": {"design": "method as in PMID 25814318", "settings": "cited from earlier work"}, "P-gp": {"system": "P-gp", "settings": "cited from earlier work"}, "BCRP": {"system": "BCRP", "design": "method as in PMID 22263589, PMID 23497885", "settings": "cited from earlier work"}, "[4]": {"settings": "80 mg intravenous injection, human subjects"}}, "note": "“And” between values parts separate entries of the source, which are not always exact repeats. Equal entries are not always repeated. Where two headings read alike, the source gives them in different places."}
{"smiles": "O=C1C[C@@H](c2ccccc2)Oc2cc(O)cc(O)c21", "note": "[pinocembrin]", "values": [{"measurement": "3H-PAH cellular accumulation", "setting": "hOAT1 [1]", "value": "significantly decreased"}, {"measurement": "hMATE2-mediated uptake of 3H-MPP+", "setting": "hMATE2", "value": "did not alter"}, {"measurement": "3H-PAH accumulation after pinocembrin treatment", "setting": "hOAT1 [2]", "value": "significantly decreased"}, {"measurement": "maximal plasma concentration", "setting": "[3]; 40 mg intravenous injection", "value": "0.6 µg/mL and 2.3 µM"}, {"measurement": "maximal plasma concentration", "setting": "[3]; 80 mg intravenous injection", "value": 4.7, "unit": "µM"}, {"measurement": "T1/2", "setting": "[3]; [4]", "value": 55, "unit": "min"}, {"measurement": "maximal plasma concentration (Cmax)", "setting": "[3]; [4]", "value": 1220, "unit": "ng/mL"}, {"measurement": "observed plasma concentration", "setting": "[3]; phase I clinical trials", "value": "3 to 10", "unit": "µM"}, {"measurement": "effect on the P-gp in the blood–brain barrier (BBB)", "setting": "P-gp", "value": "little effect"}, {"measurement": "effect on the function of P-gp", "setting": "P-gp", "value": "did not inhibit"}, {"measurement": "effect on BCRP", "setting": "BCRP", "value": "weakly inhibited"}]}
